Assay results as given in US10246429B2, “Vinyl fluoride cyclopropyl fused thiazin-2-amine compounds as beta-secretase inhibitors and methods of use” (AMGEN INC., priority 2015, dated 2019).

Experiments:
Cathepsin D (CatD) = Cathepsin D (CatD) (Homo sapiens (Human), UniProt P07339); assay: CatD assay; assay type: biochemical; settings: read-out: IC50 IP (μM) CatD
BACE2 = BACE2 (Homo sapiens (Human), UniProt Q9Y5Z0); assay: In vitro enzymatic BACE2 FRET assay; assay type: biochemical; settings: read-out: IC50 IP (μM) BACE2 Enzyme
Description: (§1) In Vitro Enzymatic BACE1 and BACE2 FRET (Fluorescence Resonance Energy Transfer) Assays (Enzyme Assay Data in Table 1)

BACE1 [1] = target: T1, BACE1 (Homo sapiens (Human), UniProt P56817); assay: BACE1 cell assay; assay type: cell-based
Target sequence in this assay (P56817 46-501, species assumed): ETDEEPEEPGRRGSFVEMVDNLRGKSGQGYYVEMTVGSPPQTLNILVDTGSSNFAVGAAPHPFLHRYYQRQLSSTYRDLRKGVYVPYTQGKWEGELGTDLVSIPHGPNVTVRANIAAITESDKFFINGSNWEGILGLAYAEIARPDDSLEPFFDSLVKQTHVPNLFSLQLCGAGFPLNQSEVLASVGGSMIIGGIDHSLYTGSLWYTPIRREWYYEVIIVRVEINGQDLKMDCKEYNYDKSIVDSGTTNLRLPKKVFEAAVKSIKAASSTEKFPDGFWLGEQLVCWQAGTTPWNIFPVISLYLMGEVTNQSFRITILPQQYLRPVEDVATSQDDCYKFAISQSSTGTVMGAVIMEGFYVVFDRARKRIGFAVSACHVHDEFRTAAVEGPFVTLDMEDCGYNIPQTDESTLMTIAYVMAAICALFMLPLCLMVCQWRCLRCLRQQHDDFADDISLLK

BACE1 [2] = target: T1, BACE1; assay: In vitro enzymatic BACE1 FRET assay; assay type: biochemical; settings: read-out: IC50 IP (μM) BACE1 Enzyme
Target sequence in this assay (P56817 46-501): as the sequence (P56817 46-501, species assumed) above
Description: as §1

[3] = read-out: IC50 IP (μM) BACE1 Cell

BACE2, sequence (Q9Y5Z0 63-518): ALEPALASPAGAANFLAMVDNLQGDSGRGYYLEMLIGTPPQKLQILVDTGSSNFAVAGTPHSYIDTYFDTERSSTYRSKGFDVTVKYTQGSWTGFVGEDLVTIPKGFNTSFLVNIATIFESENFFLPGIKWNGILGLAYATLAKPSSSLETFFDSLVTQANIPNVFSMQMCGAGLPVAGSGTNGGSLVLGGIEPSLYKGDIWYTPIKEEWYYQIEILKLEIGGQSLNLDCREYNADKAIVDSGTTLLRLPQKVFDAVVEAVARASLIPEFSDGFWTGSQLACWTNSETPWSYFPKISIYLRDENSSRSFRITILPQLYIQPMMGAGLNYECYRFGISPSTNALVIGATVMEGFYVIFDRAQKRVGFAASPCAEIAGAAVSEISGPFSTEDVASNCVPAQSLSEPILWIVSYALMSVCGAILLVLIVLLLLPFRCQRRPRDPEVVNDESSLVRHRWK
Cathepsin D (CatD), sequence (P07339 65-412, species assumed): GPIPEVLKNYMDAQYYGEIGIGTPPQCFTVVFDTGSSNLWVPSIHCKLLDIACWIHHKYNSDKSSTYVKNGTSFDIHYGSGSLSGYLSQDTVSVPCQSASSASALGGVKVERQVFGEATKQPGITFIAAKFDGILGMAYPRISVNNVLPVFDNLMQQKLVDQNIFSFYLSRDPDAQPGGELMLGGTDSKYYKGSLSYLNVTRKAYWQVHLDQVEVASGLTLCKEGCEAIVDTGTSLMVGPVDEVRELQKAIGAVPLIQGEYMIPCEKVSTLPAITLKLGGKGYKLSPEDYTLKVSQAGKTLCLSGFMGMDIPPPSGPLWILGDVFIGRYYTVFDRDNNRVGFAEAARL

Row | SMILES | IC50 (Cathepsin D (CatD)) [µM] | IC50 (BACE2) [µM] | IC50 (BACE1 [1]) [µM] | IC50 (BACE1 [2]) [µM] | IC50 (BACE1 [1]; [3]) [µM]
1 | CN(C)C(=O)[C@]12C[C@H]1[C@@](C)(c1cc(/C=C(\F)c3cnc(OCC(F)(F)C(F)F)cn3)cnc1F)N=C(N)S2 [Example 291, (1S,5S,6S)-3-amino-5-(2-fluoro-5-((Z)-2-fluoro-2-(5-(2,2,3,3-tetrafluoropropoxy)pyrazin-2-yl)vinyl)pyridin-3-yl)-N,N,5-trimethyl-2-thia-4-azabicyclo[4.1.0]hept-3-ene-1-carboxamide] | 290 | 0.106 | 0.326 | 0.0406 | –
2 | CNC(=O)[C@]12C[C@H]1[C@@](C)(c1cc(/C=C(\F)c3cnc(C#CC4CC4)cn3)ccc1F)N=C(N)S2 [Example 165, (1S,5S,6S)-3-amino-5-(5-((Z)-2-(5-(cyclopropylethynyl)pyrazin-2-yl)-2-fluorovinyl)-2-fluorophenyl)-N,5-dimethyl-2-thia-4-azabicyclo[4.1.0]hept-3-ene-1-carboxamide] | 538 | 0.307 | – | 0.00707 | 0.121
3 | C[C@H]1CCN1C(=O)[C@]12C[C@H]1[C@@](C)(c1cc(/C=C(\F)c3ccc(Cl)cn3)ccc1F)N=C(N)S2 (single isomer, unassigned) [Example 119] | 42.3 | 0.00752 | – | 0.0034 | 0.00406
4 | CNC(=O)[C@]12C[C@H]1[C@@](C)(c1cc(/C=C(/F)c3ccc(Br)cn3)ccc1F)N=C(N)S2 [Example 356, (1S,5S,6S)-3-amino-5-(5-((E)-2-(5-bromopyridin-2-yl)-2-fluorovinyl)-2-fluorophenyl)-N,5-dimethyl-2-thia-4-azabicyclo[4.1.0]hept-3-ene-1-carboxamide] | 64 | 0.137 | – | 0.023 | 0.154
5 | CN(C)C(=O)[C@]12C[C@H]1[C@@](C)(c1cc(/C=C(\F)c3cnc(OCC(F)F)cn3)ccc1F)N=C(N)S2 [Example 213, (1S,5S,6S)-3-amino-5-(5-((Z)-2-(5-(2,2-difluoroethoxy)pyrazin-2-yl)-2-fluorovinyl)-2-fluorophenyl)-N,N,5-trimethyl-2-thia-4-azabicyclo[4.1.0]hept-3-ene-1-carboxamide] | 103 | 0.065 | – | 0.021 | 0.039
6 | C[C@]1(c2cc(/C=C(\F)c3ccc(C#N)cn3)ccc2F)N=C(N)S[C@@]2(S(C)(=O)=O)C[C@H]21 [Example 233, 6-((Z)-2-(3-((1R,5S,6S)-3-amino-5-methyl-1-(methylsulfonyl)-2-thia-4-azabicyclo[4.1.0]hept-3-en-5-yl)-4-fluorophenyl)-1-fluorovinyl)nicotinonitrile] | 204 | 0.014 | – | 0.0016 | 0.0087
7 | CC1(C)COCCN1C(=O)[C@]12C[C@H]1[C@@](C)(c1cc(/C=C(\F)c3ccc(C#N)cn3)ccc1F)N=C(N)S2 [Example 332, 6-((Z)-2-(3-((1S,5S,6S)-3-amino-1-(3,3-dimethylmorpholine-4-carbonyl)-5-methyl-2-thia-4-azabicyclo[4.1.0]hept-3-en-5-yl)-4-fluorophenyl)-1-fluorovinyl)nicotinonitrile] | 117 | 0.109 | – | 0.0023 | 0.0026
8 | C#CCOc1cnc(/C(F)=C/c2ccc(F)c([C@@]3(C)N=C(N)S[C@@]4(c5ncc(C)o5)C[C@@H]34)c2)cn1 [Example 345, (1S,5S,6S)-5-(2-fluoro-5-((Z)-2-fluoro-2-(5-(prop-2-yn-1-yloxy)pyrazin-2-yl)vinyl)phenyl)-5-methyl-1-(5-methyloxazol-2-yl)-2-thia-4-azabicyclo[4.1.0]hept-3-en-3-amine] | 88.9 | 0.52 | – | 0.0063 | 0.156
9 | C[C@]1(c2cc(/C=C(\F)c3ccc(C#N)cn3)ccc2F)N=C(N)S[C@@]2(C(=O)N3CCC(F)CC3)C[C@H]21 [Example 326, 6-((Z)-2-(3-((1S,5S,6S)-3-amino-1-(4-fluoropiperidine-1-carbonyl)-5-methyl-2-thia-4-azabicyclo[4.1.0]hept-3-en-5-yl)-4-fluorophenyl)-1-fluorovinyl)nicotinonitrile] | 648 | 0.045 | – | 0.0016 | 0.0022
10 | C#Cc1ccc(/C(F)=C/c2ccc(F)c([C@@]3(C)N=C(N)S[C@@]4(C(=O)N5CCOCC5)C[C@H]43)c2)nc1 [Example 348, ((1S,5S,6S)-3-amino-5-(5-((Z)-2-(5-ethynylpyridin-2-yl)-2-fluorovinyl)-2-fluorophenyl)-5-methyl-2-thia-4-azabicyclo[4.1.0]hept-3-en-1-yl)(morpholino)methanone] | 162 | 0.097 | – | 0.007 | 0.008
11 | CC#CCOc1cnc(/C(F)=C/c2ccc(F)c([C@@]3(C)N=C(N)S[C@@]4(C#N)C[C@H]43)c2)cn1 [Example 244, (1S,5S,6S)-3-amino-5-(5-((Z)-2-(5-(but-2-yn-1-yloxy)pyrazin-2-yl)-2-fluorovinyl)-2-fluorophenyl)-5-methyl-2-thia-4-azabicyclo[4.1.0]hept-3-ene-1-carbonitrile] | 150 | 0.055 | – | 0.0004 | 0.0147
12 | CC(=O)[C@]12C[C@H]1[C@@](C)(c1cc(/C=C(\F)c3cnc(OCC(F)(F)F)cn3)ccc1F)N=C(N)S2 [Example 236, 1-((1S,5S,6S)-3-amino-5-(2-fluoro-5-((Z)-2-fluoro-2-(5-(2,2,2-trifluoroethoxy)pyrazin-2-yl)vinyl)phenyl)-5-methyl-2-thia-4-azabicyclo[4.1.0]hept-3-en-1-yl)ethanone] | 400 | 1.28 | – | 0.118 | 0.284
13 | C[C@@H]1COC[C@H](C)N1C(=O)[C@]12C[C@H]1[C@@](C)(c1cc(/C=C(\F)c3ccc(C#N)cn3)ccc1F)N=C(N)S2 [Example 313, 6-((Z)-2-(3-((1S,5S,6S)-3-amino-1-((3S,5R)-3,5-dimethylmorpholine-4-carbonyl)-5-methyl-2-thia-4-azabicyclo[4.1.0]hept-3-en-5-yl)-4-fluorophenyl)-1-fluorovinyl)nicotinonitrile] | 257 | 0.147 | – | 0.0019 | 0.0022
14 | CN(C)C(=O)[C@]12C[C@H]1[C@@](C)(c1cc(/C=C(\F)c3ccc(Br)cn3)ccc1F)N=C(N)S2 [Example 108, (1S,5S,6S)-3-amino-5-(5-((Z)-2-(5-bromopyridin-2-yl)-2-fluorovinyl)-2-fluorophenyl)-N,N,5-trimethyl-2-thia-4-azabicyclo[4.1.0]hept-3-ene-1-carboxamide] | 519 | 0.00292 | – | 0.00199 | 0.00853
15 | COC[C@]12C[C@H]1[C@@](C)(c1cc(/C=C(\F)c3cnc(OCCF)cn3)ccc1F)N=C(N)S2 [Example 269] | 329 | 1.14 | – | 0.839 | 1.66
16 | CC[C@H]1COCCN1C(=O)[C@]12C[C@H]1[C@@](C)(c1cc(/C=C(\F)c3ccc(C#N)cn3)ccc1F)N=C(N)S2 [Example 334, 6-((Z)-2-(3-((1S,5S,6S)-3-amino-1-((S)-3-ethylmorpholine-4-carbonyl)-5-methyl-2-thia-4-azabicyclo[4.1.0]hept-3-en-5-yl)-4-fluorophenyl)-1-fluorovinyl)nicotinonitrile] | 19 | 0.146 | – | 0.0064 | 0.0041
